Data from patent US4430327A, “Method for treating pregnant females for pain and anxiety” (Eli Lilly and Company, priority 1982, dated 1984).

Assays:
[1] = Placental transport in pregnant rats: maternal and fetal serum levels after subcutaneous administration; assay type: in vivo; conditions: rat, 50 mg/kg subcutaneous
Description: In the assay using rats, 19 female rats on day 20 of their gestation period were administered 50 mg./kg. body weight metkephamid (acetate salt) subcutaneously. Sixty minutes after administration, the rats were decapitated, and their blood was collected in glass tubes. The fetuses were removed from the uterus, and the blood was collected either after decapitation or via heart puncture using glass capillary tubes.
(§1) In assaying for metkephamid, 1 ml. serum samples containing 6.72 mg. NaF and 8.0 mg. ethylenediamine tetraacetic acid (EDTA) were prepared and precipitated by addition of 2 ml. acetone. The resulting supernatants were saturated with NaCl and extracted with ethyl acetate. The extracts were dried and derivatized with Fluram® solution. The resulting solution was subjected to reverse phase high performance liquid chromatography and fluorescence detection.
For comparison, meperidine was administered to rats in the manner described for metkephamid. Meperidine content was assayed by adding 6.72 mg. NaF and 8.0 mg. EDTA to 1 ml. samples of serum. The samples were made alkaline with 0.1 ml. of 1.0 M NaOH and extracted with diethyl ether. The extracts were dried and dissolved in 0.3 ml. of ethyl acetate. An aliquot was injected into a gas chromatograph containing a 5 ft. glass column packed with 3% OV-1 on 100/120 mesh Gas Chrom Q. The oven temperature was 165° C., and the flame ionization detector temperature was 250° C.

[2] = Placental transport in pregnant ewes: maternal and fetal serum levels after intramuscular administration; assay type: in vivo; conditions: sheep
Description: In the assay using pregnant ewes, fetal jugular veins and carotid arteries were catheterized and externalized. Maternal femoral arteries were also catheterized. Upon stabilization of the animals, metkephamid (acetate salt) was given intramuscularly, and maternal (10 ml.) and fetal (7 ml.) arterial blood were taken at 0, 10, 20, and 45 minutes. In this assay, 5 ewes at various stages of pregnancy ranging from day 115 to day 145 of a 145-147 day gestation period were used.
as §1

Row | SMILES | Fetal serum level ([1]; 45 min) [µg/mL] | Maternal serum level ([1]; 45 min) [µg/mL] | level at 10 min ([2]; female, maternal serum, im, 5 mg/kg intramuscular, 10 min) [ng/mL] | level at 20 min ([2]; female, maternal serum, im, 5 mg/kg intramuscular, 20 min) [ng/mL] | level at 0.75 h ([2]; female, maternal serum, im, 5 mg/kg intramuscular, 45 min) [ng/mL] | fetal levels ([2]; 5 mg./kg., all measured times, limit of sensitivity about 50 ng./ml.) | Fetal serum level ([2]; 5 mg/kg intramuscular, 0 min) [µg/mL] | Maternal serum level ([2]; 5 mg/kg intramuscular, 0 min) [µg/mL] | Fetal serum level ([2]; 5 mg/kg intramuscular, 10 min) [µg/mL] | Fetal serum level ([2]; 5 mg/kg intramuscular, 20 min) [µg/mL] | Fetal serum level ([2]; 5 mg/kg intramuscular, 45 min) [µg/mL] | Fetal serum level ([1]; 60 min) [µg/mL] | Maternal serum level ([1]; 60 min) [µg/mL]
1 | CCOC(=O)C1(c2ccccc2)CCN(C)CC1 [Meperidine, meperidine, reference compound] | 2.02 ± 0.23 | 3.73 ± 0.89 |  |  |  |  |  |  |  |  |  |  | 
2 | CC(=O)O.CSCC[C@@H](C(N)=O)N(C)C(=O)[C@H](Cc1ccccc1)NC(=O)CNC(=O)[C@@H](C)NC(=O)[C@@H](N)Cc1ccc(O)cc1 [Metkephamid, L-tyrosyl-D-alanyl-glycyl-L-phenylalanyl-N^α -methyl-L-methionylamide acetate] |  |  | 9460 ± 3010 | 9430 ± 2600 | 8540 ± 2600 | undetectable | 0.0 | 0.0 | 0.0 | 0.0 | 0.0 | 0.12 ± 0.04 | 7.17 ± 0.28
